What was measured:
[1] = test system: myogenin; test: Muscle-related gene expression in myoblast: myogenin; type: cell-based, Mouse; settings: for Myogenin/36B4 expression level: 10 μM, 1 day, relative value
[2] = test system: Male FisherF344 rats fed with a high-fat diet; test: Antiobesity action and dyslipidemia improving effect in high-fat diet-loaded rat; type: in vivo
Procedure: Male FisherF344 rats (CLEA Japan, Inc.) fed with a high-fat diet (45 kcal % fat, D12451, research diet) for 38 weeks from 5 weeks of age were used. They were bred with a powder high-fat diet (D12451M) for 4 weeks for acclimation, measured for body weight, body composition, amount of ingestion and plasma component, and divided into 3 groups (6 per group) without difference between them. The plasma components (total cholesterol, triglyceride, glucose concentration) were measured by HITACHI automatic analyzer 7070. As the body composition, total fat mass, body fat percentage, lean body mass of lower leg, and visceral fat mass were measured by X-ray CT apparatus (LCT-100A, LaTheta). The compound of Reference Example 1 was suspended in aqueous methylcellulose solution and orally administered repeatedly to 2 groups of the rats divided into 3 groups at 0.03 mg/kg or 0.1 mg/kg once a day for 14 days. A 0.5% aqueous methylcellulose solution was orally administered similarly to the remaining one group and used as a control group. On the administration completion day, the blood was drawn again from the tail vein, and plasma levels of total cholesterol, triglyceride, glucose, insulin and leptin, and body weight and body composition (total fat mass, body fat percentage, lean body mass of lower leg, visceral fat mass) were measured. The amount of ingestion was calculated from the amount of the feed given and the amount left, and the total of the test period was calculated. The numerical values in Table 11 and Table 12 show mean±standard deviation at n=5-6 (n is the number of rats).

[3] = test system: phosphorylated acetyl-CoA carboxylase (ACC); test: Phosphorylated acetyl-CoA carboxylase (ACC) amount in muscle cell; type: cell-based, Mouse; settings: for Phospho-ACC amount (%): 3 days, amended with total ACC, no compound = 100%
Procedure: • (1) In the same manner as in Example 1, C2C12 cells were cultured in a growth medium. After reaching subconfluence of not less than 90%, the medium was exchanged with a differentiation medium and the cells were cultured for about 4 days while exchanging the medium every 2 or 3 days until the cells differentiated to form a myotube. • (2) After confirmation of myotube formation under a microscope, the test compound (0.1-10 nM) was added to a differentiation medium and cultured for 3 days. Thereafter, the cells were fixed with 4% formaldehyde phosphate buffer for 10 min, and washed 4 times with PBS containing 0.1% TritonX-100. • (3) Odyssey Blocking Buffer (LI-COR Biosciences) was added, and the mixture was incubated at room temperature for 1 hr. Thereafter, primary antibody (ACCα (T-18) (Santacruz) and Phospho-ACC (Ser79) (Upstate)) were added, and the mixture was incubated at 4° C. overnight. • (4) The cells were washed 4 times with PBS containing 0.1% Tween20, secondary antibody (Donkey anti-goat IRDye 800CW (LI-COR Biosciences) and Donkey anti-mouse IRDye 680 (LI-COR Biosciences)) were added and the mixture was incubated under shading at room temperature for 1 hr. • (5) The cells were washed 4 times with PBS containing 0.1% Tween20, PBS was added, and the phospho-ACC amount and total ACC amount were measured using Odyssey2.1 (LI-COR Biosciences).
The numerical values in Table 20 were obtained by amending the phospho-ACC amount with total ACC amount and are shown based on the absence of addition of the compound as 100%. n is the number of samples.

[4] = test system: MyoD; test: Muscle-related gene expression in myoblast: MyoD; type: cell-based, Mouse; settings: for MyoD/36B4 expression level: 10 μM, 1 day, relative value
[5] = C2C12 cells cultured in a differentiation medium
[6] = 0.03 mg/kg oral once a day, 14 days
[7] = 0.1 mg/kg oral once a day, 14 days

## Cc1ncccc1Oc1sc(C(N)=O)c2c1-c1c(cnn1C)CC2 [Ref. Ex. 1, 1-methyl-8-[(2-methylpyridin-3-yl)oxy]-4,5-dihydro-1H-thieno[3,4-g]indazole-6-carboxamide]
[1]; [5]
  expression of myogenin (in words): promoted
[1]; DM (differentiation medium)
  Myogenin/36B4 expression level: 3.81 ± 0.55
[1]; GM (growth medium)
  Myogenin/36B4 expression level: 0.03 ± 0.00
[2]; [6]
  amount of ingestion (g/2 weeks): 165.8 ± 13.9 g/2 weeks
  body fat percentage, change rate (%): 3.5 ± 1.5 %
  body weight: 460.8 ± 15.3 g
  body weight, amount of change: -3.8 ± 7.5 g
  lean body mass (g) of lower leg: 82.9 ± 5.2 g
  lean body mass of lower leg, amount of change: 8.4 ± 1.7 g
  plasma glucose: 142.3 ± 5.6 mg/dL
  plasma insulin: 5.2 ± 1.0 ng/mL
  plasma leptin: 1.2 ± 0.4 ng/dL
  plasma total cholesterol: 102.3 ± 12.6 mg/dL
  plasma triglyceride: 242.4 ± 92.5 mg/dL
  total fat mass: 138.0 ± 16.6 g
  total fat mass, amount of change: -17.5 ± 8.8 g
  visceral fat mass: 53.8 ± 6.1 g
  visceral fat mass, amount of change: -4.3 ± 3.4 g
[2]; [7]
  amount of ingestion (g/2 weeks): 127.9 ± 21.2 g/2 weeks
  body fat percentage (%): 26.9 ± 2.6 %
  body fat percentage, change rate (%): −7.1 ± 1.1 %
  body weight: 446.5 ± 38.1 g
  body weight, amount of change: -19.5 ± 11.0 g
  lean body mass (g) of lower leg: 84.5 ± 6.9 g
  lean body mass of lower leg, amount of change: 9.8 ± 4.2 g
  plasma glucose: 146.3 ± 5.9 mg/dL
  plasma insulin: 2.8 ± 1.1 ng/mL
  plasma leptin: 0.6 ± 0.4 ng/dL
  plasma total cholesterol: 77.3 ± 9.6 mg/dL
  plasma triglyceride: 100.1 ± 43.1 mg/dL
  total fat mass: 120.5 ± 18.2 g
  total fat mass, amount of change: -38.1 ± 6.7 g
  visceral fat mass: 47.2 ± 9.0 g
  visceral fat mass, amount of change: -11.0 ± 2.9 g
[2]; administration at 0.1 mg/kg
  body weight (in words): clear body weight decreasing action
[3]; compound 0.1 nM
  Phospho-ACC amount (%): 112%
[3]; compound 0.3 nM
  Phospho-ACC amount (%): 125%
[3]; compound 1 nM
  Phospho-ACC amount (%): 136%
[3]; compound 3 nM
  Phospho-ACC amount (%): 167%
[3]; compound 10 nM
  Phospho-ACC amount (%): 163%
[3]; differentiated C2C12 muscle cell
  phospho-ACC amount (in words): increased
[4]; [5]
  expression of MyoD (in words): increased
[4]; DM (differentiation medium)
  MyoD/36B4 expression level: 1.59 ± 0.20
[4]; GM (growth medium)
  MyoD/36B4 expression level: 1.26 ± 0.10
